Structures can show the parent of a compound that is named as a salt. Where two headings read alike, the source gives them in different places.
Tests used:
Assay type in all cases: biochemical
recombinant PRL-1 = molecular target: T1, recombinant PRL-1 (Homo sapiens, UniProt Q93096); experiment: In vitro phosphatase assay (DiFMUP hydrolysis), PRL-1; further: test concentration or dose not given here
T1 construct: 6xHis (N, cleaved yes); made in house; host or cells: E. coli One Shot BL21 Star
T1 sequence (Q93096 1-173): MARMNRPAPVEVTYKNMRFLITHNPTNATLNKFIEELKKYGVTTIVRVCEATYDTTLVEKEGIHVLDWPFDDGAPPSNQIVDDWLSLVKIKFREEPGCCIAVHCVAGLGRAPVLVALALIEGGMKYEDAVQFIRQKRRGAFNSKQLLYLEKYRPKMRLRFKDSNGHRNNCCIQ

recombinant PRL-2 = molecular target: T2, recombinant PRL-2 (Homo sapiens, UniProt Q12974); experiment: In vitro phosphatase assay (DiFMUP hydrolysis), PRL-2;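 further: PRL-2 activity read as DiFMUP hydrolysis after 20 min at room temperature with drug, enzyme first pre-reduced at 4 °C for 20 min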
T2 construct: 6xHis (N, cleaved yes); made in house; host or cells: E. coli One Shot BL21 Star
T2 sequence (Q12974 1-167): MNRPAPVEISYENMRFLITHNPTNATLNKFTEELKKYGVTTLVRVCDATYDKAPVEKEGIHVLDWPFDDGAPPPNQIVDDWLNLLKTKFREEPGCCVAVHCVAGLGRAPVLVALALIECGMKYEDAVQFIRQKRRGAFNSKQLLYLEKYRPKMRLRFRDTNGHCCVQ

recombinant PRL-3 = molecular target: T3, recombinant PRL-3 (Homo sapiens, UniProt O75365); experiment: In vitro phosphatase assay (DiFMUP hydrolysis), PRL-3; further: test concentration or dose not given here
T3 construct: 6xHis (N, cleaved yes); made in house; host or cells: E. coli One Shot BL21 Star
T3 sequence (O75365 whole entry): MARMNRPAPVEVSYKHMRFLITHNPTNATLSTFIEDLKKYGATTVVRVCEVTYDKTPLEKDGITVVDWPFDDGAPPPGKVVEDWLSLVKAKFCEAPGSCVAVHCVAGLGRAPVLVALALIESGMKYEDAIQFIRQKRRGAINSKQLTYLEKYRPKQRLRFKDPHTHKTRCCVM

[1] = FDA-approved drug screen, compared to DMSO

| SMILES | % Phosphatase Activity (compared to DMSO) PRL-1 (recombinant PRL-1; [1]) [%] | % Phosphatase Activity (compared to DMSO) PRL-2 (recombinant PRL-2; [1]) [%] | % Phosphatase Activity (compared to DMSO) PRL-3 (recombinant PRL-3; [1]) [%] | % Phosphatase Activity (compared to DMSO) PRL-1 (recombinant PRL-1) [%] | % Phosphatase Activity (compared to DMSO) PRL-2 (recombinant PRL-2) [%] | % Phosphatase Activity (compared to DMSO) PRL-3 (recombinant PRL-3) [%] |
| --- | --- | --- | --- | --- | --- | --- |
| O=C(/C=C\n1cnc(-c2cc(C(F)(F)F)cc(C(F)(F)F)c2)n1)NNc1cnccn1 [KPT-330] | 87 | 69 | 97 | – | – | – |
| CC(=O)N1CCN(c2ccc(OCC3COC(Cn4ccnc4)(c4ccc(Cl)cc4Cl)O3)cc2)CC1 (stereo not drawn) [Ketoconazole] | 92 | 89 | 75 | – | – | – |
| CC(C(=O)O)c1cccc(C(=O)c2ccccc2)c1 (stereo not drawn) [Ketoprofen] | 105 | 95 | 87 | – | – | – |
| O=C(c1ccccc1)c1ccc2n1CCC2C(=O)O (stereo not drawn) [Ketorolac] | 98 | 97 | 78 | – | – | – |
| CN1CCC(=C2c3ccccc3CC(=O)c3sccc32)CC1 [Ketotifen Fumarate] | 93 | 97 | 89 | – | – | – |
| Cl.N=C(N)NCCC[C@H](N)C(=O)O [L-Arginine HCl (L-Arg)] | 82 | 91 | 104 | – | – | – |
| NC(=O)CC[C@H](N)C(=O)O [L-Glutamine] | 94 | 77 | 87 | – | – | – |
| N[C@@H](Cc1cc(I)c(Oc2cc(I)c(O)c(I)c2)c(I)c1)C(=O)O [L-Thyroxine] | 79 | 92 | 81 | – | – | – |
| C[N+](C)(C)C[C@H](O)CC(=O)[O-] [L-carnitine] | 102 | 103 | 83 | – | – | – |
| Cc1c(C(=O)Nc2ccc(N3C[C@@H](C)O[C@@H](C)C3)nc2)cccc1-c1ccc(OC(F)(F)F)cc1 [LDE225 (NVP-LDE225,Erismodegib)] | 97 | 111 | 83 | – | – | – |
| Cc1cc(Nc2ncc(Cl)c(Nc3ccccc3S(=O)(=O)C(C)C)n2)c(OC(C)C)cc1C1CCNCC1 [LDK378] | 99 | 92 | 114 | – | – | – |
| CN(C)C(=O)c1cc2cnc(Nc3ccc(N4CCNCC4)cn3)nc2n1C1CCCC1 [LEE011] | 103 | 84 | 98 | – | – | – |
| Cc1cccc(-c2nn3c(c2-c2ccnc4ccc(C(N)=O)cc24)CCC3)n1 [LY2157299] | 111 | 130 | 115 | – | – | – |
| CC(C)(C)Cn1c(N)nc2ccc(-c3[nH]c(C(C)(C)C)nc3-c3ccc(F)cc3)nc21 [LY2228820] | 159 | 137 | 131 | – | – | – |
| Cc1cc(Nc2cc(CN3CCOCC3)c3nc(C)c(Cc4ccc(Cl)cc4F)n3n2)n[nH]1 [LY2784544] | 146 | 167 | 95 | – | – | – |
| CCN1CCN(Cc2ccc(Nc3ncc(F)c(-c4cc(F)c5nc(C)n(C(C)C)c5c4)n3)nc2)CC1 [LY2835219] | 92 | 79 | 99 | – | – | – |
| CC(CCc1ccccc1)NCC(O)c1ccc(O)c(C(N)=O)c1 (stereo not drawn) [Labetalol HCl] | 156 | 154 | 110 | – | – | – |
| CCOC(=O)C1=C(C)NC(C)=C(C(=O)OCC)C1c1ccccc1/C=C/C(=O)OC(C)(C)C [Lacidipine] | 232 | 329 | 172 | – | – | – |
| O=C(C[S+]([O-])Cc1ccco1)NC/C=C\COc1cc(CN2CCCCC2)ccn1 (stereo not drawn) [Lafutidine] | 114 | 115 | 83 | – | – | – |
| Nc1ccn([C@@H]2CS[C@H](CO)O2)c(=O)n1 [Lamivudine] | 104 | 113 | 92 | – | – | – |

| SMILES | % Phosphatase Activity (compared to DMSO) PRL-1 (recombinant PRL-1; [1]) [%] | % Phosphatase Activity (compared to DMSO) PRL-2 (recombinant PRL-2; [1]) [%] | % Phosphatase Activity (compared to DMSO) PRL-3 (recombinant PRL-3; [1]) [%] | % Phosphatase Activity (compared to DMSO) PRL-1 (recombinant PRL-1) [%] | % Phosphatase Activity (compared to DMSO) PRL-2 (recombinant PRL-2) [%] | % Phosphatase Activity (compared to DMSO) PRL-3 (recombinant PRL-3) [%] |
| --- | --- | --- | --- | --- | --- | --- |
| Nc1nnc(-c2cccc(Cl)c2Cl)c(N)n1 [Lamotrigine] | 121 | 110 | 83 | – | – | – |
| Cc1c(OCC(F)(F)F)ccnc1C[S+]([O-])c1nc2ccccc2[nH]1 (stereo not drawn) [Lansoprazole] | 94 | 92 | 59 | – | – | – |
| CS(=O)(=O)CCNCc1ccc(-c2ccc3ncnc(Nc4ccc(OCc5cccc(F)c5)c(Cl)c4)c3c2)o1.Cc1ccc(S(=O)(=O)O)cc1.Cc1ccc(S(=O)(=O)O)cc1 [Lapatinib (GW-572016) Ditosylate] | – | – | – | 212 | 255 | 142 |
| CS(=O)(=O)CCNCc1ccc(-c2ccc3ncnc(Nc4ccc(OCc5cccc(F)c5)c(Cl)c4)c3c2)o1 [Lapatinib] | – | – | – | 207 | 207 | 121 |
| COC(=O)N[C@H](C(=O)N1CC2(CC2)C[C@H]1c1nc(-c2ccc3c(c2)C(F)(F)c2cc(-c4ccc5[nH]c([C@@H]6[C@H]7CC[C@H](C7)N6C(=O)[C@@H](NC(=O)OC)C(C)C)nc5c4)ccc2-3)c[nH]1)C(C)C [Ledipasvir (GS5885)] | 174 | 115 | 144 | – | – | – |
| Cc1oncc1C(=O)Nc1ccc(C(F)(F)F)cc1 [Leflunomide] | 88 | 80 | 67 | – | – | – |
| Nc1cccc2c1CN(C1CCC(=O)NC1=O)C2=O (stereo not drawn) [Lenalidomide (CC-5013)] | 87 | 95 | 84 | – | – | – |
| COc1cc2nccc(Oc3ccc(NC(=O)NC4CC4)c(Cl)c3)c2cc1C(N)=O [Lenvatinib (E7080)] | 96 | 85 | 87 | – | – | – |
| COC(=O)C1=C(C)NC(C)=C(C(=O)OC(C)(C)CN(C)CCC(c2ccccc2)c2ccccc2)C1c1cccc([N+](=O)[O-])c1.Cl (stereo not drawn) [Lercanidipine (hydrochloride)] | 87 | 101 | 84 | – | – | – |
| O=C(O)CSc1nnc(Br)n1-c1ccc(C2CC2)c2ccccc12 [Lesinurad] | 90 | 102 | 85 | – | – | – |
| N#Cc1ccc(C(c2ccc(C#N)cc2)n2cncn2)cc1 [Letrozole] | 94 | 85 | 74 | – | – | – |
| CC(C)NC[C@H](O)COc1ccc(CCOCC2CC2)cc1.Cl [Levobetaxolol HCl] | – | – | – | 100 | 99 | 69 |
| CCCCN1CCCC[C@H]1C(=O)Nc1c(C)cccc1C [Levobupivacaine HCl] | 91 | 108 | 72 | – | – | – |
| C[C@H]1COc2c(N3CCN(C)CC3)c(F)cc3c(=O)c(C(=O)O)cn1c23 [Levofloxacin hydrate] | 322 | 306 | 316 | – | – | – |
| C[C@H]1COc2c(N3CCN(C)CC3)c(F)cc3c(=O)c(C(=O)O)cn1c23 [Levofloxacin] | 264 | 314 | 238 | – | – | – |
| C#C[C@]1(O)CC[C@H]2[C@@H]3CCC4=CC(=O)CC[C@@H]4[C@H]3CC[C@@]21CC [Levonorgestrel] | 94 | 101 | 78 | – | – | – |
| C[C@@H]1CC(=O)NN=C1c1ccc(NN=C(C#N)C#N)cc1 [Levosimendan] | 76 | 58 | 69 | – | – | – |
| CCN1CCC[C@H]1CNC(=O)c1cc(S(N)(=O)=O)ccc1OC [Levosulpiride] | 98 | 103 | 84 | – | – | – |
| CC1(C)Cc2c(-c3ccccc3)c(-c3ccc(Cl)cc3)c(CC(=O)O)n2C1 [Licofelone] | 80 | 85 | 69 | – | – | – |
| CCN(CC)CC(=O)Nc1c(C)cccc1C [Lidocaine hydrochloride] | 97 | 88 | 84 | – | – | – |

— paper PMC8119466, “A screen of FDA-approved drugs identifies inhibitors of protein tyrosine phosphatase 4A3 (PTP4A3 or PRL-3)” (Scientific Reports, 2021)
